According to patent publication US8871747B2, “Urea and thiourea derivatives” (Topotarget A/S, priority 2008, dated 2014):
Where a name gives a salt, the structure may show the parent alone.

These molecules were tested on A2780 cells (assay: In vitro cell proliferation assay (WST-1 assay)). Conditions: Homo sapiens, total incubation time 72 h, WST-1 viable cell readout.
Format: cell-based
Procedure: A2780 cells were seeded in 96-well plates at 3×10^3 cells/well in 100 μL of culture medium, 8 wells were left empty for media only controls.
After 24 h the compound titrations were performed, in a separate dilution plate, by serially diluting the compounds of general formula (I) in culture medium. A 100 μL of each dilution was added to the plated cells, this was done in triplicate, and controls (e.g. DMSO and blanks) were included. The plates were incubated for 24 h at 37° C. in a CO2 incubator. The compound titrations were repeated in a separate dilution plate after 24 h. The media plus compound from the assay plates were then aspirated. A 100 μL of media was then added to all wells, followed by 100 μL of each compound dilution. The plates were incubated for a further 48 h at 37° C. in a CO2 incubator (total incubation time 72 h). The number of viable cells was then assessed using Cell Proliferation Reagent WST-1. 10 μL of WST-1 reagent added to each well and incubated for one to four hours at 37° C. in CO2 incubator. The absorbance was measured (450 nm/690 nm).
The activity of compounds of general formula (I) in reducing the number of viable cells was calculated as: % activity=[(S^C−B)/(S^O−B)]×100
S^C denotes signal measured in the presence of test compound, S^O denotes signal detected in the absence of compound, and B denotes background signal, measured in blank wells containing medium only. Analyse data using GraphPad Prism.

| SMILES | IC50 |
| --- | --- |
| O=C(NCCCCCCS(=O)(=O)NOCC1CCCCC1)Nc1ccncc1 [Compound 1001, N-(cyclohexylmethoxy)-6-(3-pyridin-4-ylureido)hexane-1-sulfonamide] | 13.5 nM |
| O=C(NCCCCCCC(=O)N(OCCN1CCOCC1)C1CCCCC1)Nc1ccncc1 [Compound 1002, N-Cyclohexyl-N-(2-morpholinoethoxy)-7-(3-pyridin-4-ylureido)heptanamide] | 1.49 nM |
| O=S(=O)(CCCCCCNC(=S)Nc1ccncc1)N(OCCN1CCOCC1)C1CCCCC1 [Compound 1005, N-Cyclohexyl-N-(2-morpholinethoxy)-6-(3-pyridin-4-ylthioureido)hexane-1-sulfonamide oxalate] | 0.34 nM |
| O=C(NCCCCCCS(=O)(=O)N(OCCN1CCOCC1)C1CCCCC1)Nc1ccncc1 [Compound 1008, N-Cyclohexyl-N-(2-morpholinethoxy)-6-(3-pyridin-4-ylureido)hexane-1-sulfonamide oxalate] | 0.23 nM |
| O=C(NCCCCCCC(=O)N(OCCN1CCOCC1)C1CCCCC1)NCc1cccnc1 [Compound 1009, N-cyclohexyl-N-(2-morpholinoethoxy)-7-(3-(pyridin-3-ylmethyl)ureido)heptanamide] | 0.33 nM |
| COCCOCCOCCN(OCC1CCCCC1)S(=O)(=O)CCCCCCNC(=O)NCc1cccnc1 [Compound 1013, N-(cyclohexylmethoxy)-N-(2-(2-(2-methoxyethoxy)ethoxy)ethyl)-6-(3-(pyridin-3-ylmethyl)ureido)hexane-1-sulfonamide] | 0.11 nM |
| O=C(CCCCCCNC(=S)NCc1cccnc1)N(OCCN1CCOCC1)C1CCCCC1 [Compound 1015, N-cyclohexyl-N-(2-morpholinoethoxy)-7-(3-(pyridin-3-ylmethyl)thioureido)heptanamide] | 0.89 nM |
| O=C(NCCCCCCS(=O)(=O)N1CCCCO1)NCc1cccnc1 [Compound 1018, hydrochloride] | 14 nM |
| O=C(NCCCCCCC(=O)N(OCCN1CCOCC1)C1CCCCC1)NCCc1cccnc1 [Compound 1020] | 1.34 nM |
| CC(C)N(OCCN1CCOCC1)S(=O)(=O)CCCCCCNC(=O)NCc1cccnc1 [Compound 1022, N-Isopropyl-N-(2-morpholinoethoxy)-6-(3-(pyridin-3-ylmethyl)ureido)hexane-1-sulfonamide] | 2.23 nM |
| O=C(NCCCCCCS(=O)(=O)N(CCCN1CCOCC1)C1CCCCC1)Nc1ccncc1 [Compound 1026, N-Cyclohexyl-N-(3-morpholinopropyl)-6-(3-pyridin-4-ylureido)hexane-1-sulfonamide] | 0.23 nM |
| O=C(NCCCCCCS(=O)(=O)N(CCN1CCOCC1)OCC1CCCCC1)NCc1cccnc1 [Compound 1031, N-(cyclohexylmethoxy)-N-(2-morpholinoethyl)-6-(3-(pyridin-3-ylmethyl)ureido)hexane-1-sulfonamide] | 0.13 nM |
| O=C(NCCCCCCS(=O)(=O)N(CCN1CCOCC1)OCC1CCCCC1)NCCc1cccnc1 [Compound 1032, N-(cyclohexylmethoxy)-N-(2-morpholinoethyl)-6-(3-(2-(pyridin-3-yl)ethyl)ureido)hexane-1-sulfonamide] | 14.1 nM |
| O=C(NCCCCCS(=O)(=O)N(OCCN1CCOCC1)C1CCCCC1)NCc1cccnc1 [Compound 1042] | 6.64 nM |
| O=C(NCCCCCCCS(=O)(=O)N(OCCN1CCOCC1)C1CCCCC1)NCc1cccnc1 [Compound 1043] | 0.37 nM |
| CC(C)N(CCCN1CCOCC1)S(=O)(=O)CCCCCCNC(=O)Nc1ccncc1 [Compound 1049, N-Isopropyl-N-(3-morpholinopropyl)-6-(3-pyridin-4-ylureido)hexane-1-sulfonamide] | 0.6 nM |
| O=C(NCCCCCCS(=O)(=O)N(OCCN1CCOCC1)C1CCCC1)NCc1cccnc1 [Compound 1056, N-Cyclopentyl-N-(2-morpholinoethoxy)-6-(3-(pyridin-3-ylmethyl)ureido)hexane-1-sulfonamide] | 0.58 nM |
| CCOP(=O)(CCCCCCNC(=O)NCc1cccnc1)NC1CCCCC1 (centres unmarked) [Compound 1067, Ethyl N-cyclohexyl-P-(6-(3-pyridin-3-ylmethyl)ureido)phosphonamidate] | 0.79 nM |
| CCOP(=O)(CCCCCCNC(=O)NCc1cccnc1)N1CCCCO1 (centres unmarked) [Compound 1072] | 2.4 nM |

The remaining lines, values ahead:

| IC50 | SMILES |
| --- | --- |
| 0.63 nM | O=C(NCCCCCCS(=O)(=O)N(OCCN1CCOCC1)C1CCCCCC1)NCc1cccnc1 [Compound 1058, N-Cycloheptyl-N-(2-morpholinoethoxy)-6-(3-(pyridin-3-ylmethyl)ureido)hexane-1-sulfonamide] |
| 0.55 nM | O=S(=O)(CCCCCCNC(=S)Nc1ccncc1)N(CCCN1CCOCC1)C1CCCC1 [Compound 1064, N-Cyclopentyl-N-(3-morpholinopropyl)-6-(3-pyridin-4-ylthioureido)hexane-1-sulfonamide] |
| 0.22 nM | O=C(NCCCCCCC(=O)N(OCCN1CCOCC1)C1CCCCC1)Nc1cccnc1 [Compound 1065, N-Cyclohexyl-N-(2-morpholinoethoxy)-7-(3-pyridin-3-ylureido)heptanamide] |
| 0.27 nM | O=C(NCCCCCCS(=O)(=O)N(CCCN1CCOCC1)C1CCCC1)Nc1ccncc1 [Compound 1066, N-Cyclopentyl-N-(3-morpholinopropyl)-6-(3-pyridin-4-ylureido)hexane-1-sulfonamide] |
| 3.04 nM | O=C(NCCCCCS(=O)(=O)N(CCCN1CCOCC1)C1CCCC1)NCc1cccnc1 [Compound 1069, N-cyclopentyl-N-(3-morpholinopropyl)-5-(3-(pyridin-3-ylmethyl)ureido)pentane-1-sulfonamide] |
| 1.64 nM | O=C(NCCCCCCS(=O)(=O)N(OCCN1CCOCC1)C1CCCCC1)NCc1cccnc1 [Compound 1075, N-Cyclohexyl-N-(2-morpholinoethoxy)-6-(3-(pyridin-3-ylmethyl)ureido)hexane-1-sulfonamide oxalate] |
| 5.4 nM | O=C(NCCCCCCS(=O)(=O)Nc1ccccc1)NCc1cccnc1 [Compound 1076, N-Phenyl-6-(3-(pyridin-3-ylmethyl)ureido)hexane-1-sulfonamide] |
| 0.46 nM | O=C(NCCCCCCS(=O)(=O)N(CCN1CCOCC1)OCc1ccccc1)NCc1cccnc1 [Compound 1078, N-(Benzyloxy)-N-(2-morpholinoethyl)-6-(3-(pyridin-3-ylmethyl)ureido)hexane-1-sulfonamide] |
| 0.83 nM | O=S(=O)(CCCCCCNC(=S)Nc1ccncc1)N(CCCN1CCOCC1)C1CCCCC1 [Compound 1081, N-Cyclohexyl-N-(3-morpholinopropyl)-6-(3-(pyridin-4-ylthioureido)hexane-1-sulfonamide oxalate] |
| 0.053 nM | O=S(=O)(CCCCCCNC(=S)Nc1ccncc1)N(OCCN1CCOCC1)C1CCCC1 [Compound 1082] |
| 3.92 nM | O=S(=O)(CCCCCNC(=S)Nc1ccncc1)N(OCCN1CCOCC1)C1CCCC1 [Compound 1083, N-Cyclopentyl-N-(2-morpholinoethoxy)-5-(3-(pyridin-4-ylthioureido)pentane-1-sulfonamide oxalate] |
| 1.36 nM | O=S(=O)(CCCCCCNC(=S)Nc1ccncc1)N(CCF)OCC1CCCCC1 [Compound 1087, N-(cyclohexylmethoxy)-N-(2-fluoroethyl)-6-(3-pyridin-4-ylthioureido)hexane-1-sulfonamide] |
| 0.13 nM | O=C(NCCCCCCS(=O)(=O)N(CCF)OCC1CCCCC1)Nc1ccncc1 [Compound 1088, N-(cyclohexylmethoxy)-N-(2-fluoroethyl)-6-(3-pyridin-4-ylureido)hexane-1-sulfonamide] |
| 2.04 nM | O=C(NCCCCCCS(=O)(=O)N(CCF)OCC1CCCCC1)NCc1cccnc1 [Compound 1089, N-(cyclohexylmethoxy)-N-(2-fluoroethyl)-6-(3-(pyridin-3-ylmethyl)ureido)hexane-1-sulfonamide] |
| 0.15 nM | O=C(NCCCCCCS(=O)(=O)N(OCCN1CCOCC1)C1CCCC1)Nc1ccncc1 [Compound 1090] |
| 0.1 nM | O=C(/C=C/c1cccnc1)NCCCCC1CCN(C(=O)c2ccccc2)CC1 [FK866, reference compound] |
